What was measured:
[1] = test system: flint corn (ZEAMI); assay: Test 11 field trial, preemergence; type: in vivo, Zea mays L. ssp. indurata; set-up: scale not given here; details: atrazine 1500 or metolachlor 2500 g a.i./ha alone
Source text: (§1) Corn seeds (hybrid ‘Pioneer 3041’) were planted in mid spring season, 5 cm deep in a clay soil having 2.6% organic matter and a pH of 5.6. Plots were 8 m long by 1.5 m wide with rows spaced 80 cm apart. Seeds were spaced 15 cm apart within the rows. The field was managed using conventional tillage practices. […] Treatments consisted of Compound 2 or
(§2) Goosegrass was not evaluated 16 or 91 days after application.

[2] = test system: common blackjack (BIDPI); assay: Test 11 field trial, preemergence; type: in vivo, Bidens pilosa; set-up: scale not given here; details: atrazine 1500 or metolachlor 2500 g a.i./ha alone
Source text: as §1, §2

[3] = test system: Surinam grass (BRADC); assay: Test 11 field trial, preemergence; type: in vivo, Brachiaria decumbens; set-up: scale not given here; details: atrazine 1500 or metolachlor 2500 g a.i./ha alone
Source text: as §1, §2

[4] = test system: alexandergrass (BRAPL); assay: Test 11 field trial, preemergence; type: in vivo, Brachiaria plantaginea; set-up: scale not given here; details: atrazine 1500 or metolachlor 2500 g a.i./ha alone
Source text: as §1, §2

[5] = test system: southern sandbur (CCHEC); assay: Test 11 field trial, preemergence; type: in vivo, Cenchrus echinatus; set-up: scale not given here; details: atrazine 1500 or metolachlor 2500 g a.i./ha alone
Source text: as §1, §2

[6] = test system: tropical spiderwort (COMBE); assay: Test 11 field trial, preemergence; type: in vivo, Commelina benghalensis; set-up: scale not given here; details: atrazine 1500 or metolachlor 2500 g a.i./ha alone
Source text: as §1, §2

[7] = test system: Brazilian crabgrass (DIGHO); assay: Test 11 field trial, preemergence; type: in vivo, Digitaria horizontalis; set-up: scale not given here; details: atrazine 1500 or metolachlor 2500 g a.i./ha alone
Source text: as §1, §2

[8] = test system: goosegrass (ELEIN); assay: Test 11 field trial, preemergence; type: in vivo, Eleusine indica
Source text: as §1, §2

[9] = test system: Ipomoea grandiflora (IPOGF); assay: Test 11 field trial, preemergence; type: in vivo
Source text: as §1, §2

[10] = test system: arrowleaf sida (SIDRH); assay: Test 11 field trial, preemergence; type: in vivo, Sida rhombifolia
Source text: as §1, §2

[11] = test system: velvetleaf (ABUTH); assay: Test 15 greenhouse, postemergence; details: 12 DAA
[12] = 30 DAA, atrazine 1500 or metolachlor 2500 g a.i./ha alone
[13] = 44 DAA, 2500 g a.i./ha, scale 0 to 100
[14] = 62 DAA, 2500 g a.i./ha, scale 0 to 100
[15] = 16 DAA, atrazine 1500 or metolachlor 2500 g a.i./ha alone
[16] = 91 DAA, 2500 g a.i./ha, scale 0 to 100

SMILES: CCc1cccc(C)c1N(C(=O)CCl)C(C)COC (stereo not drawn) [Metolachlor]
- ZEAMI Obs ([1]; 16 DAA): 30
- ZEAMI Obs ([1]; 30 DAA): 20
- ZEAMI Obs ([1]; 44 DAA): 25
- ZEAMI Obs ([1]; 62 DAA): 20
- ZEAMI Obs ([1]; 91 DAA): 20
- BIDPI Obs ([2]; 16 DAA): 40
- BIDPI Obs ([2]; 30 DAA): 40
- BIDPI Obs ([2]; 44 DAA): 40
- BIDPI Obs ([2]; 62 DAA): 0
- BIDPI Obs ([2]; 91 DAA): 0
- BRADC Obs ([3]; 16 DAA): 97
- BRADC Obs ([3]; 30 DAA): 95
- BRADC Obs ([3]; 44 DAA): 90
- BRADC Obs ([3]; 62 DAA): 60
- BRADC Obs ([3]; 91 DAA): 40
- BRAPL Obs ([4]; 16 DAA): 97
- BRAPL Obs ([4]; 30 DAA): 90
- BRAPL Obs ([4]; 44 DAA): 90
- BRAPL Obs ([4]; 62 DAA): 60
- BRAPL Obs ([4]; 91 DAA): 40
- CCHEC Obs ([5]; 16 DAA): 95
- CCHEC Obs ([5]; 30 DAA): 97
- CCHEC Obs ([5]; 44 DAA): 97
- CCHEC Obs ([5]; 62 DAA): 80
- CCHEC Obs ([5]; 91 DAA): 100
- COMBE Obs ([6]; 16 DAA): 100
- COMBE Obs ([6]; 30 DAA): 100
- COMBE Obs ([6]; 44 DAA): 100
- COMBE Obs ([6]; 62 DAA): 100
- COMBE Obs ([6]; 91 DAA): 100
- DIGHO Obs ([7]; 16 DAA): 100
- DIGHO Obs ([7]; 30 DAA): 100
- DIGHO Obs ([7]; 44 DAA): 100
- DIGHO Obs ([7]; 62 DAA): 100
- DIGHO Obs ([7]; 91 DAA): 95
- ELEIN Obs [8, 12]: 100
- ELEIN Obs [8, 13]: 100
- ELEIN Obs [8, 14]: 100
- IPOGF Obs [9, 15]: 70
- IPOGF Obs [9, 12]: 60
- IPOGF Obs [9, 13]: 40
- IPOGF Obs [9, 14]: 40
- IPOGF Obs [9, 16]: 40
- SIDRH Obs [10, 15]: 90
- SIDRH Obs [10, 12]: 80
- SIDRH Obs [10, 13]: 60
- SIDRH Obs [10, 14]: 70
- SIDRH Obs [10, 16]: 90

SMILES: CCOc1cc(Oc2ccc(C(F)(F)F)cc2Cl)ccc1[N+](=O)[O-] [Oxyfluorfen]
- Obs response, scale 0 to 100 ([11]; 15 g a.i./ha): 43
- Obs response, scale 0 to 100 ([11]; 30 g a.i./ha): 67
- Obs response, scale 0 to 100 ([11]; 60 g a.i./ha): 81

SMILES: O=C1[C@H]2C[C@H](F)CN2C(=O)N1c1cc(NS(=O)(=O)CCl)c(Cl)cc1F [Profluazol]
- Obs response, scale 0 to 100 ([11]; 2 g a.i./ha): 91
- Obs response, scale 0 to 100 ([11]; 8 g a.i./ha): 100
- Obs response, scale 0 to 100 ([11]; 15 g a.i./ha): 100

From patent publication US20100285959A1, “HERBICIDAL MIXTURES” (priority 2006, published 2010)
